The subject of assay [1] is MRSA in the nares. The assay can be described thus: Nasal colonization human study Part One, quantitative swab cultures, MRSA. The class given is in vivo, S. aureus. Conditions: for MRSA Average: laser w/ drug arm, one line per patient. How it is done:
(§1) This investigational protocol was an open-label study of subjects who are colonized with MRSA in the nares (nostril). The study was done in two parts.
(§2) In this human study, three arms were produced. […] This was done on day 1 and again on day three; and Arm #3: ⅓ of the subjects were treated with the laser and then a topical antibiotic three times a day for five days. Prior to enrollment in this study, prospective subjects met all of the following criteria: age≧18 years and ≦70 years of age; previous positive MRSA culture; negative urine pregnancy test or post-menopausal for one year; willing to comply with study requirements, including return visits and self-application of topical antibiotics; and willing to provide informed consent to participate. Prospective subjects were excluded from this study if any of the following criteria were met: pregnancy; patients who are severely immunocompromised (such as may occur in AIDS, renal transplant regimens, immunosuppressed states consequent to malignancy or agents used in rendering oncologic care, or who suffer from end stage renal disease); diabetic patients; allergy to antimicrobials being used in the study (group 3).
(§3) All participants underwent an initial quantitative assessment for nasal carriage of S. aureus, during their first visit. Each participant had the anterior nares (each nostril) sampled for culture with a circular movement (three rotations on each side) of a sterile wood applicator plain Rayon® tipped swab in each nostril and placed in a labled tube. 2 ml of room temp phosphate buffered saline was placed in the tube after the removal of the swab (to completely cover the swab in the tube). Each swab was then placed back in the tube and the tube was then vortexed for 15 seconds to disperse isolates of MRSA and/or MSSA into the PBS solution. Aliquots of PBS from the tube were plated in the following manner: 100 μl from each tube was lawn plated in triplicate (3×) on selective Chromogenic MRSA And MSSA agar. Plates were placed in incubator within 30 minutes of the plating procedure, and colonies were counted manually, and recorded 18 hrs after plating.
(§4) On day one of the study, all subjects underwent this exact procedure in arms 1 and 2 of the study two minutes before the laser procedure. They again were sampled in the same manner 2 minutes after the laser procedure. In the third arm of the study, they were swabbed two minutes before the procedure and the first antibiotic administration was completed after the laser therapy. The post/laser swab sample was taken for this arm 20 min later.
(§5) On day three of the study, all subjects from arms one two and three underwent the exact same procedures as day 1 of the study.
(§6) On day five all subjects from all arms underwent just one swabbing per nostril with the exact same sampling procedure one time.
(§7) Application of H202: 3% OTC hydrogen peroxide was applied to a cotton pledget for application to the subject prior to irradiation. This was inserted in the nose for 120 seconds and then removed. The subjects were then given doses of phototherapeutic near infrared radiation as described. Application of generic topical Antimicrobial: The subjects were first given doses of phototherapeutic near infrared radiation as described. […] The swab was inserted approximately 1 cm in to the anterior nares and rotated 360 degrees several times and removed. Patients were instructed to perform the exact application procedure 3 times a day for the remaining 5 days.
(§8) The NOVEON™ laser was used for two (2) six-minute treatments in each nostril on day (1) and day (3) of the study.
(§9) The laser was calibrated before the first treatment of the day. Intermittent temperature testing of the treatment site was performed on each subject using a noncontact infrared thermometer (Raytek Minitemp), 30-60 second intervals.

Assay [2] relates to MRSA (ATCC BAA-43). The assay can be described thus: MRSA/antimicrobial potentiation, CFU on TSB agar with and without antibiotic after laser (Example XXII, Experiments 1-4). Conditions: for CFU/ml / CFU (single plate count) / AVG (CFU): Drug yes; for CFU (single plate count): agar with 30 μg/ml methicillin, 0.5 μg/ml penicillin G or 4 μg/ml erythromycin, 24 hrs 37° C., plates 1-5; for AVG (CFU): mean of 5 plates; for Drug Effect: CFU with drug relative to without drug; for Laser Effect (+Drug): Exp vs Cont, both with drug. The assay is classed as cell-based, Staphylococcus aureus subsp. aureus. As to the method: Four separate experiments have been performed.
Eight different laser dosages were used to treat a saline-suspension of logarithmically growing MRSA, labeled A1 to H1.
The treated and a control untreated suspension were diluted and plated in triplicate on trypic soy agar with or without 30 μg/ml methicillin After 24 hrs of growth at 37° C. colonies were counted.
CFU (colony forming units) were compared between the plates with and without methicillin for both control (untreated) and treated MRSA.
The treated and a control untreated suspension were diluted and plated in triplicate on trypic soy agar with or without 30 μg/mlmethicillin.
After 24 hrs of growth at 37° C. colonies were counted.
The treated and a control untreated suspension were diluted and plated in pentuplicate on trypic soy agar with or without 30 μg/ml methicillin.

Assay [3] concerns MRSA. The assay can be described thus: CFU counts of MRSA plated on agar with antibiotic after sub-lethal NIMELS laser (Examples IX-XII). The class given is cell-based, Staphylococcus aureus. Particulars: for MRSA colony count, EXPERIMENTAL: sub-lethal NIMELS laser. The source says: The following parameters illustrate the general bacterial methods according to the invention as applied to MRSA for the in vitro Experiments V and VIII-XII.
The null hypothesis is μ1−μ2=0 and μ1−μ3=0 where:
a) μ1 is sub-lethal dosimetry from the NIMEL laser system on MRSA as a control and;
The null hypothesis is μ1−μ2=0 and μ1−μ3=0 where: • a) μ1 is sub-lethal dosimetry from the NIMEL laser system on MRSA as a control and; • b)μ2 is the same sub-lethal dosimetry from the NIMEL laser system on MRSA with the addition of tetracycline at resistant MIC just below effectiveness level and; • c) μ3 is the same sub-lethal dosimetry from the NIMEL laser system on MRSA with the addition of rifampin at resistant MIC just below effectiveness level.
The null hypothesis is μ1−μ2=0 and μ1−μ3=0 where: a) μ1 is sub-lethal dosimetry from the NIMEL laser system on MRSA as a control and; b)μ2 is the same sub-lethal dosimetry from the NIMEL laser system on MRSA with the addition of methicillin at resistant MIC just below effectiveness level and; […]

The test system of assay [4] is MSSA in the nares. The assay is described as follows: Nasal colonization human study Part One, quantitative swab cultures, MSSA. Conditions: laser w/ drug arm, one line per patient. The class given is in vivo, S. aureus. How it is done: as §1, §2, §3, §4, §5, §6, §7, §8, §9
[5] abbreviates: Cont (no laser), groups A4/C4/E4.
Setting [6] is: Cont (no laser), groups B4/D4/F4.
Setting [7] is: Exp (laser 870+930 at 5 W 14 min, then 930 at 6 W 9 min), groups B4/D4/F4.
Setting [8] is: Exp (laser 870+930 at 5.5 W 12 min, then 930 at 8 W 6 min), groups A4/C4/E4.
Setting [9] is: Initial Analysis, Post-treatment swab, left nostril.
[10] abbreviates: Initial Analysis, Post-treatment swab, right nostril.
[11] abbreviates: Initial Analysis, Pre swab (baseline), left nostril, mean of triplicate plates.
Setting [12] is: Initial Analysis, Pre swab (baseline), right nostril.
[13] abbreviates: Second Analysis, Post-treatment swab, left nostril.
The mark [14] stands for this setting: Second Analysis, Post-treatment swab, right nostril.
Where [15] appears, read: Second Analysis, Pre swab, left nostril.
Where [16] appears, read: Second Analysis, Pre swab, right nostril.
The mark [17] stands for this setting: Third Analysis, Swab, left nostril.
[18] abbreviates: Third Analysis, Swab, right nostril.

Structures are written as SMILES. Where “and” joins values, the source holds several entries; their conditions need not be identical. Equal values may be shown once.

The text below walks through data of patent publication US20110295343A1, “NEAR-INFRARED ELECTROMAGNETIC MODIFICATION OF CELLULAR STEADY-STATE MEMBRANE POTENTIALS” (priority 2008, published 2011).

Consider `OO` [H2O2, hydrogen peroxide], for which the “outcome of Laser plus H2O2 arm on nasal colonization” value in assay [1] (humans, topical 3% H2O2 120 seconds, then laser, day 1 and day 3) is listed as “some transient benefit in some of the patients, but no obvious long-term efficacy”.
Take `CC1(C)S[C@@H]2[C@H](NC(=O)Cc3ccccc3)C(=O)N2[C@H]1C(=O)O` [Penicillin, penicillin G]: the CFU/ml in assay [2] (setting [5]) is on record as 3.25E+08 CFU/ml; in assay [2] (setting [6]), 3.98E+08 CFU/ml; in assay [2] (setting [7]), 7.14E+07 CFU/ml; in assay [2] (setting [8]), 9.12E+07 CFU/ml. The “CFU (single plate count)” value was 106 CFU and 99 CFU and 102 CFU and 113 CFU and 122 CFU in assay [2] (setting [5]); 101 CFU and 111 CFU and 138 CFU and 132 CFU and 182 CFU in assay [2] (setting [6]). In addition, the “AVG (CFU)” value in assay [2] (setting [5]) came out at 108.4 CFU; in assay [2] (setting [6]), 132.8 CFU; in assay [2] (setting [7]), 23.8 CFU; in assay [2] (setting [8]), 30.4 CFU. The “Drug Effect” value in assay [2] (setting [5]) amounted to 0.75; in assay [2] (setting [6]) it was 1.07; in assay [2] (setting [7]), 0.31; in assay [2] (setting [8]), 0.34. The “Laser Effect (+Drug)” value in assay [2] (laser 870+930 at 5 W 14 min, then 930 at 6 W 9 min, groups B4/D4/F4) came to 0.18; in assay [2] (laser 870+930 at 5.5 W 12 min, then 930 at 8 W 6 min, groups A4/C4/E4), 0.28. In addition, the “synergistic effect of NIMELS with antibiotic in growth inhibition of MRSA colonies” value in assay [2] (FIG. 17) is listed as “being potentiated by sub-lethal NIMELS dosimetry”. In addition, the “effect of sub-lethal NIMELS irradiation on antibiotic action against MRSA colonies (words)” value in assay [3] (antibiotic at resistant MIC just below effectiveness level) is listed as “successful reversal of MRSA resistance”.
Take `OO` [Peroxide]: the “s. aureus Average” value in assay [4] (setting [9]) is 0 CFU (2×) and 20 CFU and 1 CFU; in assay [4] (setting [10]) it was 0 CFU and 506 CFU and 146 CFU and 3272 CFU; in assay [4] (setting [11]) it was 1 CFU and 53 CFU and 17 CFU and 124 CFU; in assay [4] (setting [12]), 0 CFU and 29 CFU and 285 CFU and 3996 CFU; in assay [4] (setting [13]), 0 CFU (3×) and 10 CFU; in assay [4] (setting [14]) it was 0 CFU and 126 CFU and 5 CFU and 3589 CFU. The “s. aureus Average” value in assay [4] (setting [15]) was 1 CFU and 206 CFU and 4 CFU and 12 CFU; in assay [4] (setting [16]) it was 1 CFU and 94 CFU and 257 CFU and 4373 CFU; in assay [4] (setting [17]), 1 CFU and 868 CFU and 28 CFU and 0 CFU; in assay [4] (setting [18]), 1 CFU and 586 CFU and 52 CFU and 3493 CFU. Besides, the “MRSA Average” value in assay [1] (setting [9]) was 0 CFU (2×) and 22 CFU and 1 CFU; in assay [1] (setting [10]), 0 CFU (2×) and 455 CFU and 2752 CFU; in assay [1] (setting [11]), 0 CFU (2×) and 63 CFU and 4 CFU; in assay [1] (setting [12]), 0 CFU (2×) and 30 CFU and 4032 CFU; in assay [1] (setting [13]), 0 CFU (3×) and 12 CFU; in assay [1] (setting [14]), 0 CFU (2×) and 114 CFU and 3347 CFU. Moreover, the “MRSA Average” value in assay [1] (setting [15]) was 0 CFU (2×) and 180 CFU and 17 CFU; in assay [1] (setting [16]), 0 CFU (2×) and 90 CFU and 3099 CFU; in assay [1] (setting [17]) it was 0 CFU (3×) and 827 CFU; in assay [1] (setting [18]), 0 CFU (2×) and 563 CFU and 3648 CFU.
Take `CO[C@H]1/C=C/O[C@@]2(C)Oc3c(C)c(O)c4c(O)c(c(/C=N/N5CCN(C)CC5)c(O)c4c3C2=O)NC(=O)/C(C)=C\C=C\[C@H](C)[C@H](O)[C@@H](C)[C@@H](O)[C@@H](C)[C@H](OC(C)=O)[C@@H]1C` [Rifampin]: the “MRSA colony count, CONTROL” value in assay [3] (no laser, agar with rifampin 90 ug/ml, samples E1, E2, E3, 5 replicates each) is 183 and 210 (3×) and 166 and 228 and 188 and 274 and 180 and 240 and 288 and 280 and 290 and 300. Besides, in assay [3] (agar with rifampin 90 ug/ml, samples E1, E2, E3, 5 replicates each), the “MRSA colony count, EXPERIMENTAL” value was 280 (2×) and 272 and 320 and 330 and 284 (2×) and 270 and 225 and 200 (2×) and 210 and 378.
Take `CN(C)[C@@H]1C(O)=C(C(N)=O)C(=O)[C@@]2(O)C(O)=C3C(=O)c4c(O)cccc4[C@@](C)(O)[C@H]3C[C@@H]12` [Tetracycline]: in assay [3] (no laser, agar with tetracyc. 4 ug/ml, samples E1, E2, E3, 5 replicates each), the “MRSA colony count, CONTROL” value was 240 and 256 and 268 and 310 (2×) and 255 and 280 and 283 and 263 and 260 and 368 and 380 and 375 and 390. The “MRSA colony count, EXPERIMENTAL” value in assay [3] (agar with tetracyc. 4 ug/ml, samples E1, E2, E3, 5 replicates each) is 42 (2×) and 18 (2×) and 28 and 27 and 16 and 72 and 67 and 45 and 47 and 74 and 56 and 46 and 48.
For `COc1cc(Cc2cnc(N)nc2N)cc(OC)c1OC` [Trimethoprim], in assay [3] (no laser, agar with trimeth 2 ug/ml, replicates B-4 1 to 5), the “MRSA colony count, CONTROL (no laser)” value is 213 and 198 and 240 and 220 and 145. The “MRSA colony count, EXPERIMENTAL” value in assay [3] (agar with trimeth 2 ug/ml, replicates B-4 1 to 5) is 100 and 110 and 125 and 138 and 115.
